The results in this text go back to ChEMBL document CHEMBL3046588, “Design, synthesis, and in vitro evaluation of cytotoxic activity of new substituted 1,4-benzoquinones and hydroquinones” (2007).

As usually defined, the GI50 is the concentration that inhibits growth by half. For orientation: TGI means the concentration giving total growth inhibition.

Holding throughout (assay type): functional
Test [1] can be described thus: Cytotoxicity against Homo sapiens (human) non-small cell lung cancer cells after 48 hr by SRB assay. The settings on record: Cancer cell lines. A general note: In SRB staining, fixed cells bind dye roughly in proportion to their protein.
Test [2] can be described thus: Cytotoxicity against Homo sapiens (human) colon cancer cells after 48 hr by SRB assay. The settings on record: Cancer cell lines.
For the next test, the system named is MCF7. The experiment in a line: Cytotoxicity against Homo sapiens (human) MCF7 cells assessed as cellular growth after 48 hr by Alamar blue assay. On the set-up: concentration or dose not given beside the values. A general note: The colour change of resazurin is a common sign of viable cells or microbes.
Test [3] can be described thus: Cytotoxicity against Homo sapiens (human) ovarian cancer cells after 48 hr by SRB assay. The settings on record: Cancer cell lines.
Test [4] can be described thus: Cytotoxicity against Homo sapiens (human) leukemia cells after 48 hr by SRB assay. Conditions: Leukemia cell.
The subject of the next test is NCI-H460. The test can be described thus: Cytotoxicity against Homo sapiens (human) NCI-H460 cells assessed as cellular growth after 48 hr by Alamar blue assay. Further details: concentration or dose not given beside the values.
Test [5] is described as follows: Cytotoxicity against Homo sapiens (human) prostate cancer cells after 48 hr by SRB assay. Conditions: Cancer cell lines.
A further test deals with SF-268. The test can be described thus: Cytotoxicity against Homo sapiens (human) SF268 cells assessed as cellular growth after 48 hr by Alamar blue assay. On the set-up: concentration or dose not given beside the values.
Test [6] can be described thus: Cytotoxicity against Homo sapiens (human) melanoma cellsafter 48 hr by SRB assay. The settings on record: Melanoma cell.
Test [7] is described as follows: Cytotoxicity against Homo sapiens (human) CNS cancer cells after 48 hr by SRB assay. Conditions: Cancer cell lines.
Test [8] is described as follows: Cytotoxicity against Homo sapiens (human) breast cancer cells after 48 hr by SRB assay. The settings on record: Cancer cell lines; for LC50 (concentration giving 50% net cell kill): pooled result: one value given for 9 cell lines, strains, targets or settings.
Test [9] can be described thus: Cytotoxicity against Homo sapiens (human) renal cancer cells after 48 hr by SRB assay. Conditions: Cancer cell lines.

A value given as a limit tells only on which side of the number the result lay.

In the case of `O=C1C=CC(=O)C(c2cc(-c3ccc(Cl)cc3)nn2-c2ccccc2)=C1`, the GI50 stood at 53.5 µM in test [1]; 42.4 µM in [2]; 67.3 µM in [3]; 27.8 µM in test [4]; 36.5 µM in [5]; 69.4 µM in [6]. Also, the values for the GI50 in test [7], in [8] and in test [9] were 65.3 µM, 51.5 µM and 55.6 µM, respectively. For the same compound, the TGI in [1] is 70.1 µM; in [2] it was 69.7 µM; in test [3], 81.7 µM; in [4], 87.1 µM; in test [5], 66.3 µM; in test [6], 55.4 µM. Further, the results for the TGI in [7], in test [8] and in [9] were 55.8 µM, 69.3 µM and 53.3 µM, respectively. In addition, the Activity in the test with MCF7, in the test with NCI-H460 and in the test with SF-268 was less than 32% throughout. The compound further returned an LC50 (concentration giving 50% net cell kill) in test [8] of 95.6 µM.
Take `Cc1ccc(-c2cc(C3=CC(=O)C=CC3=O)n(-c3ccc(S(N)(=O)=O)cc3)n2)cc1`: the GI50 turned out to be 53.5 µM in test [1]; 42.4 µM in [2]; 67.4 µM in test [3]; 37.4 µM in test [4]; 36.5 µM in [5]; 69.4 µM in test [6]. Further, the GI50 in [7] was determined as 65.3 µM; in [8] it was 51.5 µM; in test [9], 55.6 µM. The TGI in [1] worked out at 100 µM; in test [2], 88.8 µM; in [3], 100 µM; in test [4], 94 µM; in test [5] it was 100 µM; in test [6], 97.3 µM. The TGI worked out at 100 µM in test [7], 95.5 µM in test [8] and 86.8 µM in [9]. Also, the Activity in the test with MCF7, with NCI-H460 and with SF-268 was less than 32% in each case. The same compound showed an LC50 (concentration giving 50% net cell kill) in test [8] of 99.2 µM.
Take `NS(=O)(=O)c1ccc(-n2nc(-c3ccc(Cl)cc3)cc2C2=CC(=O)C=CC2=O)cc1`: the GI50 turned out to be 23.9 µM in test [1]; 17.6 µM in [2]; 26.5 µM in test [3]; 31.8 µM in [4]; 21.6 µM in test [5]; 26.7 µM in [6]. In addition, the GI50 in test [7] is 23.7 µM; in [8], 21.9 µM; in [9], 23.1 µM. The concentration for total growth inhibition (TGI) in test [1] amounted to 71.1 µM; in [2] it was 37.4 µM; in test [3] it was 65.7 µM; in [4] it was 84.6 µM; in test [5] it was 71.9 µM; in [6], 52.7 µM. Also, the TGI in [7] turned out to be 53 µM; in test [8] it was 62.6 µM; in test [9], 50.2 µM. The Activity in the test on MCF7, in the test on NCI-H460 and in the test on SF-268 was less than 32% throughout. Moreover, in test [8], the LC50 (concentration giving 50% net cell kill) was found to be 92.3 µM.
For `CC(=O)NS(=O)(=O)c1ccc(-n2nc(-c3ccccc3)cc2C2=CC(=O)C=CC2=O)cc1`, the GI50 in test [1] was 100 µM; in [2], 78.4 µM; in test [3], 100 µM; in [4], 57.8 µM; in test [5], 100 µM; in test [6], 92 µM. The GI50 in test [7] is 100 µM; in [8] it was 78.5 µM; in test [9] it was 90 µM. The TGI came to 100 µM in test [1]; 100 µM in test [2]; 100 µM in test [3]; 91.2 µM in [4]; 100 µM in test [5]; 100 µM in [6]. The TGI in test [7], in test [8] and in [9] was 100 µM throughout. In addition, the Activity in the test with MCF7, in the test on NCI-H460 and in the test with SF-268 was less than 32% in each case. In addition, the LC50 (concentration giving 50% net cell kill) in [8] was determined as 100 µM.
Take `CC1=NN(c2ccc(Br)cc2)C(=O)C1CC(=O)c1cc(O)ccc1O` (stereo not given): the GI50 in test [1] is 38.2 µM; in test [2], 36 µM; in [3], 34.2 µM; in test [4], 7.75 µM; in [5] it was 42.2 µM; in test [6] it was 28 µM. In addition, the results for the GI50 in test [7], in [8] and in [9] were 25.8 µM, 19.1 µM and 39.8 µM, respectively. The TGI in test [1] came to 48.6 µM; in test [2], 45.5 µM; in test [3] it was 50 µM; in [4], 35.8 µM; in test [5], 50 µM; in [6], 42.6 µM. For the same compound, the TGI amounted to 46 µM in [7], 38.2 µM in test [8] and 46.1 µM in test [9]. Moreover, the Activity in the test with MCF7, in the test with NCI-H460 and in the test on SF-268 was less than 32% in each case. The compound also had an LC50 (concentration giving 50% net cell kill) in [8] of 49.6 µM.
Take `O=C(CC1C(=O)NN(c2ccc(Br)cc2)C1=O)c1cc(O)ccc1O` (stereo not given): the GI50 was found to be 21.7 µM in test [1]; 17.7 µM in test [2]; 26.2 µM in test [3]; 34.1 µM in [4]; 22.7 µM in [5]; 22 µM in test [6]. In addition, the 50% growth inhibitory concentration (GI50) turned out to be 18.8 µM in test [7], 16.1 µM in test [8] and 23.7 µM in test [9]. In addition, the TGI in [1] was determined as 48.4 µM; in test [2] it was 43.3 µM; in test [3], 44.3 µM; in test [4], 50 µM; in [5], 50 µM; in [6], 42.4 µM. Moreover, the TGI in test [7] was 40.5 µM; in [8], 40.9 µM; in test [9], 46.9 µM. The Activity in the test on MCF7, in the test with NCI-H460 and in the test on SF-268 was less than 32% each time. Also, in [8], the LC50 (concentration giving 50% net cell kill) was determined as 49.9 µM.
Turning to `NS(=O)(=O)c1ccc(-n2nc(-c3ccccc3)cc2-c2cc(O)ccc2O)cc1`, the GI50 in test [1] amounted to 88.9 µM; in test [2], 75.7 µM; in test [3] it was 81.3 µM; in test [4] it was 49.6 µM; in test [5], 77.6 µM; in test [6] it was 61.9 µM. In addition, the concentration for 50% growth inhibition (GI50) worked out at 86.6 µM in [7], 83.9 µM in test [8] and 88.1 µM in test [9]. Also, the TGI is 100 µM in test [1]; 100 µM in [2]; 98.2 µM in test [3]; 100 µM in test [4]; 100 µM in test [5]; 92 µM in [6]. In addition, the TGI in test [7] came out at 100 µM; in test [8] it was 96 µM; in test [9], 99.3 µM. The Activity in the test with MCF7, with NCI-H460 and in the test with SF-268 was less than 32% in each case. In addition, the LC50 (concentration giving 50% net cell kill) in test [8] came to 100 µM.
`NS(=O)(=O)c1ccc(-n2nc(-c3ccc(Cl)cc3)cc2-c2cc(O)ccc2O)cc1`: the GI50 came to 13 µM in [1]; 15.1 µM in test [2]; 14.7 µM in test [3]; 5.03 µM in [4]; 13.4 µM in test [5]; 14.6 µM in test [6]. Besides, the GI50 was 17.8 µM in [7], 16.7 µM in [8] and 12 µM in [9]. For the same compound, the TGI in test [1] came out at 39.1 µM; in test [2], 43.1 µM; in test [3], 50.9 µM; in test [4], 61.4 µM; in test [5], 29.8 µM; in test [6], 38.9 µM. Further, the values for the total growth inhibition concentration (TGI) in test [7], in test [8] and in [9] were 35.5 µM, 54.5 µM and 35.4 µM, respectively. Moreover, the Activity in the test on MCF7, with NCI-H460 and in the test with SF-268 was less than 32% throughout. This compound also returned an LC50 (concentration giving 50% net cell kill) in test [8] of 76.6 µM.
`CC(=O)NS(=O)(=O)c1ccc(-n2nc(-c3ccccc3)cc2-c2cc(O)ccc2O)cc1`: the GI50 in [1] was determined as 93.9 µM; in test [2], 78.6 µM; in [3], 100 µM; in test [4], 93.6 µM; in test [5], 100 µM; in test [6], 84.8 µM. For the same compound, the concentration for 50% growth inhibition (GI50) in [7] came out at 90.4 µM; in test [8] it was 91.3 µM; in test [9], 78.1 µM. Also, the total growth inhibition concentration (TGI) in [1], in test [2], in test [3], in test [4], in test [5] and in test [6] was 100 µM throughout. In addition, the TGI in [7], in test [8] and in [9] was 100 µM each time. Moreover, the Activity in the test on MCF7, with NCI-H460 and with SF-268 was less than 32% in each case. In test [8], the LC50 (concentration giving 50% net cell kill) was determined as 100 µM.
In the case of `CC(=O)NS(=O)(=O)c1ccc(-n2nc(-c3ccc(Cl)cc3)cc2-c2cc(O)ccc2O)cc1`, the 50% growth inhibitory concentration (GI50) in [1] came to 36.2 µM; in test [2], 37.6 µM; in [3], 44.6 µM; in [4], 37.4 µM; in [5] it was 17.7 µM; in test [6], 36.2 µM. In addition, the GI50 in test [7] came to 38.5 µM; in test [8] it was 55.3 µM; in test [9], 23.5 µM. Further, the TGI in test [1] is 73.7 µM; in test [2] it was 66.5 µM; in [3], 81.2 µM; in test [4], 92.6 µM; in test [5] it was 38.8 µM; in test [6] it was 60.1 µM. Further, the concentration for total growth inhibition (TGI) stood at 93.9 µM in test [7], 82.1 µM in test [8] and 59.8 µM in test [9]. Further, the Activity in the test with MCF7, with NCI-H460 and in the test with SF-268 was less than 32% throughout. For the same compound, the LC50 (concentration giving 50% net cell kill) in test [8] came out at 91.2 µM.
